Patent US20220387362A1, “COMPOSITIONS COMPRISING A DHODH INHIBITOR FOR THE TREATMENT OF ACUTE MYELOID LEUKEMIA” (RHIZEN PHARMACEUTICALS AG, priority 2019, published 2022)
Read-outs that look alike come from different tables or passages of the source.

Legend:
AML cell line U937 = assay: Anti-proliferative effect in combination with gilteritinib (MTT assay); assay type: cell-based
Experimental: (§1) Compound A (at 3 μM) and gilteritinib (1.5 μM) was tested in AML cell line U937. Cells were plated in 96-well plates and incubated with desired concentrations of Compound A for 72 h. At the end of the incubation period, MTT ((3-(4,5-dimethylthiazol-2-yl)-2,5-diphenyltetrazolium bromide)) was added. The plates were placed on a shaker for 5 min to mix the formazan and the optical density at 560 nm was measured on a spectrophotometer. Data were plotted using Graphpad prism for calculation of the percentage inhibition to determine the effect of Compound A as a single agent or in combination with gilteritinib.

[1] = system: CD11b expression in MV411; assay: CD11b cell surface expression (flow cytometry); assay type: cell-based; conditions: MV411, 3 μM, 72 hours
Experimental: (§2) Cells were plated in complete media at pre-determined density in 6-well plates and the cells were treated with Compound A 96 hours for THP-1 cell lines and 72 hours for MV411 cell lines) in the presence or absence of uridine. The cells were stained with CD11b Antibody PE according to manufacturer's protocol (CD11b Monoclonal Antibody (ICRF44), PE, eBioscience) and the cells were acquired and analysed by flow cytometry (Guava Easycyte).

[2] = system: CD11b expression in THP-1; assay: CD11b cell surface expression (flow cytometry); assay type: cell-based; conditions: THP-1, 5 μM, 96 hours
Experimental: as §2

AML cell line THP-1 = assay: Anti-proliferative effect in combination with gilteritinib (MTT assay); assay type: cell-based
Experimental: as §1, with “Gilteritinib (0.25” for “gilteritinib (1.5”, “THP-1.” for “U937.”

HL-60 = assay: Anti-proliferative effect with uridine rescue (MTT assay); assay type: cell-based; conditions: Homo sapiens, 72 h
Experimental: (§3) Compound A was tested in the absence of Uridine (U937, HL-60, THP-1 and MV411 cell lines) or in the presence of Uridine (100 μM for U937, HL-60 and MV411 and 300 μM for THP-1). Cells were plated in 96-well plates and incubated with desired concentrations of Compound A for 72 h. At the end of the incubation period, MTT ((3-(4,5-dimethylthiazol-2-yl)-2,5-diphenyltetrazolium bromide)) was added. The plates were placed on a shaker for 5 min to mix the formazan and the optical density at 560 nm was measured on a spectrophotometer. Data were plotted using Graphpad prism for calculation of the GI50 concentrations.

THP-1 [3] = assay: as above; assay type: cell-based; conditions: Homo sapiens, 72 h
Experimental: as §3

MV411 [4] = assay: as above; assay type: cell-based; conditions: Homo sapiens, MV4-11, 72 h
Experimental: as §3

U937 [5] = assay: as above; assay type: cell-based; conditions: Homo sapiens, U-937, 72 h
Experimental: as §3

THP-1 [6] = assay: Anti-proliferative effect in AML cell lines (MTT assay); assay type: cell-based; conditions: Homo sapiens, THP-1, 72 h
Experimental: as §3, with “across a panel” for “in the absence”, “AML cell lines” for “Uridine”, “THP-1, KG-1” for “THP-1”, “MV411).” for “MV411 cell lines) or in the presence of Uridine (100 μM for U937, HL-60 and MV411 and 300 μM for THP-1).”, “hours (h).” for “h.”

MV411 [7] = assay: as above; assay type: cell-based; conditions: Homo sapiens, MV4-11, MV411, 72 h
Experimental: as §3, with “across a panel” for “in the absence”, “AML cell lines” for “Uridine”, “THP-1, KG-1” for “THP-1”, “MV411).” for “MV411 cell lines) or in the presence of Uridine (100 μM for U937, HL-60 and MV411 and 300 μM for THP-1).”, “hours (h).” for “h.”

HL60 = assay: as above; assay type: cell-based; conditions: Homo sapiens, HL-60, HL60, 72 h
Experimental: as §3, with “across a panel” for “in the absence”, “AML cell lines” for “Uridine”, “THP-1, KG-1” for “THP-1”, “MV411).” for “MV411 cell lines) or in the presence of Uridine (100 μM for U937, HL-60 and MV411 and 300 μM for THP-1).”, “hours (h).” for “h.”

U937 [8] = assay: as above; assay type: cell-based; conditions: Homo sapiens, U-937, U937, 72 h
Experimental: as §3, with “across a panel” for “in the absence”, “AML cell lines” for “Uridine”, “THP-1, KG-1” for “THP-1”, “MV411).” for “MV411 cell lines) or in the presence of Uridine (100 μM for U937, HL-60 and MV411 and 300 μM for THP-1).”, “hours (h).” for “h.”

KG-1 = assay: as above; assay type: cell-based; conditions: Homo sapiens, KG-1, 72 h
Experimental: as §3, with “across a panel” for “in the absence”, “AML cell lines” for “Uridine”, “THP-1, KG-1” for “THP-1”, “MV411).” for “MV411 cell lines) or in the presence of Uridine (100 μM for U937, HL-60 and MV411 and 300 μM for THP-1).”, “hours (h).” for “h.”

[9] = system: CD11b mRNA expression in THP-1; assay: CD11b mRNA expression in THP-1 cell lines (Real-Time PCR); assay type: cell-based; conditions: THP-1, 3 μM, 72 hours
Experimental: THP-1 cells were plated in complete media at pre-determined density in 6-well plates and the cells were treated with Compound A for 72 hours. mRNA was isolated using TRI reagent according to the manufacturer's protocol (TRI Reagent from Sigma). cDNA was synthesized using cDNA Synthesis kit according to manufacturer's protocol (First Strand cDNA Synthesis kit) and Real-Time PCR was performed. Data was calculated using delta delta Ct method. Fold change in mRNA expression was plotted using GraphPad Prism (Version 5.02)

[10] = system: AML cell lines (U937, HL-60, THP-1, KG-1 and MV411); assay: Anti-proliferative effect across panel of AML cell lines (MTT assay); assay type: cell-based; conditions: U937, HL-60, THP-1, KG-1, MV411; 72 h; read-out: GI50 range over all AML cell lines tested
Experimental: as §3, with “across a panel” for “in the absence”, “AML cell lines” for “Uridine”, “THP-1, KG-1” for “THP-1”, “MV411).” for “MV411 cell lines) or in the presence of Uridine (100 μM for U937, HL-60 and MV411 and 300 μM for THP-1).”, “hours (h).” for “h.”

[11] = system: AML cell lines (U937, HL-60, THP-1 and MV411); assay: Anti-proliferative effect with uridine rescue, AML cell lines together (MTT assay); assay type: cell-based
Experimental: as §3

MV411 xenograft = assay: MV411 mouse xenograft model; assay type: in vivo
Experimental: The effect of Compound A was determined in a MV411 mouse xenograft model. Briefly, 5×10^6 cells were injected into the right flank region by Subcutaneous administration under sterile condition. The oral administration of Compound (A) at 30 mg/kg/BID for 21 days. The tumors were measured using a calliper in two dimensions, length (a) and width (b). Tumor volumes were estimated from measurements of the two diameters of the individual tumors as follows: Tumor Volume (mm3)=(a×b2)/2. At the end of the study period, animals were sacrificed and the tumors harvested.

[12] = in combination with cyclosporine; cited from earlier work
[13] = patients; cited from earlier work
[14] = Homo sapiens, U-937, U937, 72 h, Compound A 3 μM, gilteritinib 1.5 μM, read-out: % inhibition of cell growth
[15] = Homo sapiens, THP-1, 72 h, Compound A 3 μM, Gilteritinib 0.25 μM, read-out: % inhibition of cell growth

## CCCCOc1cccc(-c2cc(F)c(NC(=O)c3ccccc3C(=O)O)c(Cl)c2)c1 [Compound A, 2-(3′-butoxy-3-chloro-5-fluorobiphenyl-4-ylcarbamoyl)benzoic acid]
AML cell line U937; [14]
  inhibition at 3 µM: 41.4%
AML cell line U937; U937, p<0.05
  effect on activity of gilteritinib (cell growth inhibition): potentiated
[1]
  CD11b cell surface expression, % of cell population: 35%
[2]; with uridine
  CD11b cell surface expression after addition of uridine: 15%
[2]; without uridine
  CD11b cell surface expression, % of cell population: 40%
AML cell line THP-1; [15]
  inhibition at 3 µM: 35.8%
AML cell line THP-1; THP-1, p<0.05
  effect on activity of gilteritinib (cell growth inhibition): potentiated
HL-60; HL-60, 100 μM uridine
  GI50: > 10 µM
HL-60; HL-60, absence of uridine
  GI50: 3.6 µM
THP-1 [3]; THP-1, 300 μM uridine
  GI50: > 10 µM
THP-1 [3]; THP-1, absence of uridine
  GI50: 2 µM
MV411 [4]; MV411, 100 μM uridine
  GI50: > 10 µM
MV411 [4]; MV411, absence of uridine
  GI50: 2.6 µM
U937 [5]; U937, 100 μM uridine
  GI50: > 10 µM
U937 [5]; U937, absence of uridine
  GI50: 3.2 µM
THP-1 [6]
  GI50: 2.5 µM
MV411 [7]
  GI50: 2.5 µM
HL60
  GI50: 3.5 µM
U937 [8]
  GI50: 2.4 µM
KG-1
  GI50: 7.6 µM
other
  melting point: 128 to 130 °C
[9]
  induction of CD11b gene expression: 80 fold
[10]
  GI50: 2.4 to 7.6 µM
[11]; 100 μM or 300 μM uridine, read-out: GI50 over AML cell lines with addition of uridine
  GI50: > 10 µM
[11]; U937, HL-60, THP-1, MV411, no uridine, read-out: GI50 range over AML cell lines, without uridine
  GI50: 2 to 3.2 µM
MV411 xenograft; Compound A 30 mg/kg/BID oral 21 days, combination with cytarabine 20 mg/Kg
  tumor growth inhibition: 37%
MV411 xenograft; throughout the study period, MV411 xenograft mice
  adverse events or body weight changes: No adverse events or body weight changes were observed

## CCc1nc(C(N)=O)c(Nc2ccc(N3CCC(N4CCN(C)CC4)CC3)c(OC)c2)nc1NC1CCOCC1 [Gilteritinib, reference compound]
AML cell line U937; [14]
  inhibition at 1.5 µM: 41.7%
AML cell line THP-1; [15]
  inhibition at 0.25 µM: 40.1%

## Cc1c(-c2ccc(-c3ccccc3F)cc2)nc2ccc(F)cc2c1C(=O)O [brequinar]
[12]
  toxic effects on oral administration: toxic effects, including leukocytopenia and thrombocytopenia

## Cc1oncc1C(=O)Nc1ccc(C(F)(F)F)cc1 [leflunomide]
[13]
  half-life time: approximately 2 weeks
